This is an account of results in patent US10597392B2, “Tetrahydropyridopyrazines as modulators of GPR6” (Takeda Pharmaceutical Corporation Limited, priority 2014, dated 2020).

Molecules are shown by their SMILES. pEC50: −log10 of the molar value.

T1 sequence (P46095 whole entry): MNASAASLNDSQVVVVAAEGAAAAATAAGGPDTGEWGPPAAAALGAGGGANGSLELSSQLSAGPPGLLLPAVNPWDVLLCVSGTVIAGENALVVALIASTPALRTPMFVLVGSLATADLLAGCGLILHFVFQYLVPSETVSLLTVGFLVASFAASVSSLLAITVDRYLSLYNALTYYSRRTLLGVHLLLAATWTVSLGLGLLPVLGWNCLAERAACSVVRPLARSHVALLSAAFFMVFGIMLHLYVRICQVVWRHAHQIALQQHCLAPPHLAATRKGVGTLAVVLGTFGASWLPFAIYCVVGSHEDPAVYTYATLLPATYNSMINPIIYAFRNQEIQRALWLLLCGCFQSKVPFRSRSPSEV

This test addresses T1, GPR6 receptor expressed in CHO-K1 cells (Homo sapiens, UniProt P46095).
T1 construct: expressed in transfected cells
The experiment in a line: Inhibition of cAMP Activity of GPR6 In Vitro Assay. The format is cell-based. The conditions noted are these: inhibition of constitutive cAMP activity of GPR6 in CHO-K1 cells, 45 min incubation, HTRF cAMP detection. The protocol: Inhibition of cAMP Activity of GPR6 In Vitro Assay
This cell based assay measures the ability of compounds to inhibit the constitutive cAMP activity of GPR6 receptor expressed in CHO-K1 cells. CHO cells were stably expressed with GPR6 receptor, whose expression is controlled by a tetracycline inducable element. The cells were cultured in medium containing F12K, 10% FBS, 1% Penn/Strep, 200 ug/mL Hygromycin. GPR6 receptor expression was induced for 20 hrs with 2 µg/ml doxycycline (sigma D9891) in growth media. After addition of doxycycline cells were plated at a density of 450-750 cells per well in 96-well half-volume black tissue culture plates (Costar) and placed in an incubator (37°, 5% CO2) for 20 hours prior to cAMP assays.
Culture media was removed from cells and they were washed with 50 µL/well of Ringer's Buffer (MgCl2 0.047 mg/mL, NaH2PO4 0.18 mg/mL, Na2HPO4 0.1 mg/mL, KCl 0.34 mg/mL, NaHCO3 1.26 mg/mL, D-glucose 1.8 mg/mL, NaCl 7 mg/mL; pH=7.4). Compounds suspended in DMSO were diluted in Ringer's Buffer containing 0.5% fatty acid free BSA plus 300 μM IBMX and incubated on cells for 45 min at 37° and 5% CO2. After incubation cells were incubated for 10 min at room temp with Eu-cAMP tracer solution from a Perkin Elmer Lance HTRF Ultra cAMP assay kit (TRF0263). Then ULight™-anti-cAMP solution from the Lance HTRF kit was added and incubated on a shaker at room temp for 1 hour prior to HTRF detection in a Perkin Elmer Envision plate reader.
IC50 curves were generated with a four-parameter logistic equation using GraphPad Prism 5.03.
On the technique in general: TR-FRET usually uses a lanthanide donor and a delayed reading to cut background.
Usually pEC50 stands for −log10 of the EC50, conventionally taken in molar units. Regarding `Cc1cc2nc(NC(C)C)c(N3CCN(Cc4ccc(F)cc4F)CC3)nc2cn1` [Example 1, 3-(4-(2,4-difluorobenzyl)piperazin-1-yl)-N-isopropyl-7-methylpyrido[3,4-b]pyrazin-2-amine], the pEC50 was 7.23.

On to `Cc1cc2nc(NC(C)C)c(N3CCC(Oc4ccc(F)cc4F)CC3)nc2cn1` [Example 2, 3-(4-(2,4-difluorophenoxy)piperidin-1-yl)-N-isopropyl-7-methylpyrido[3,4-b]pyrazin-2-amine], for which the pEC50 is 7.78.

Take `Cc1cc2nc(N[C@H]3CCOC3)c(N3CCN(Cc4ccc(F)cc4F)CC3)nc2cn1` [Example 3]: the pEC50 is 7.05.

Take `Cc1cc2nc(N[C@H]3CCOC3)c(N3CCC(Oc4ccc(F)cc4F)CC3)nc2cn1` [Example 4, (S)-3-(4-(2,4-difluorophenoxy)piperidin-1-yl)-7-methyl-N-(tetrahydrofuran-3-yl)pyrido[3,4-b]pyrazin-2-amine]: the negative logarithm of the EC50 (pEC50) is 7.30.

In turn, `Cc1cc2nc(N[C@@H]3CCOC3)c(N3CCC(Oc4ccc(F)cc4F)CC3)nc2cn1` [Example 5, (R)-3-(4-(2,4-difluorophenoxy)piperidin-1-yl)-7-methyl-N-(tetrahydrofuran-3-yl)pyrido[3,4-b]pyrazin-2-amine] gave a pEC50 of 7.52. Against the preceding compound, the pEC50 is 0.22 log units higher.

In turn, `COc1ccc(OC2CCN(c3nc4cnc(C)cc4nc3NC3CC3)CC2)c(F)c1` [Example 8, N-cyclopropyl-3-(4-(2-fluoro-4-methoxyphenoxy)piperidin-1-yl)-7-methylpyrido[3,4-b]pyrazin-2-amine 2,2,2-trifluoroacetate] showed a negative-log EC50 (pEC50) of 7.73.

Consider `Cc1cc2nc(N[C@H]3C[C@@H](O)C3)c(N3CCC(Oc4ccc(F)cc4F)CC3)nc2cn1` [Example 9, cis-3-((3-(4-(2,4-difluorophenoxy)piperidin-1-yl)-7-methylpyrido[3,4-b]pyrazin-2-yl)amino)cyclobutanol], for which the negative logarithm of the EC50 (pEC50) was 7.28.

For `Cc1cc2nc(N[C@H]3C[C@@H](O)C3)c(N3CCN(Cc4ccc(F)cc4F)CC3)nc2cn1` [Example 10, cis-3-((3-(4-(2,4-difluorobenzyl)piperazin-1-yl)-7-methylpyrido[3,4-b]pyrazin-2-yl)amino)cyclobutanol], the pEC50 is 7.16.

The compound `Cc1cc2nc(N[C@H]3C[C@H](F)C3)c(N3CCC(Oc4ccc(F)cc4F)CC3)nc2cn1` [Example 11, trans-3-(4-(2,4-difluorophenoxy)piperidin-1-yl)-N-(3-fluorocyclobutyl)-7-methylpyrido[3,4-b]pyrazin-2-amino] gave a pEC50 of 7.21. The pEC50 values of the last two compounds are within 0.2 log units of each other.

The compound `Cc1cc2nc(N[C@H]3C[C@H](F)C3)c(N3CCN(Cc4ccc(F)cc4F)CC3)nc2cn1` [Example 12, trans-3-(4-(2,4-difluorobenzyl)piperazin-1-yl)-N-(3-fluorocyclobutyl)-7-methylpyrido[3,4-b]pyrazin-2-amine] showed a pEC50 of 7.31. The pEC50 values of the last two compounds are within 0.2 log units of each other.

Take `Cc1cc2nc(N[C@H]3C[C@H](O)C3)c(N3CCC(Oc4ccc(F)cc4F)CC3)nc2cn1` [Example 13, trans-3-((3-(4-(2,4-difluorophenoxy)piperidin-1-yl)-7-methylpyrido[3,4-b]pyrazin-2-yl)amino)cyclobutanol]: the negative logarithm of the EC50 (pEC50) was 7.32.

`Cc1cc2nc(N[C@H]3C[C@H](O)C3)c(N3CCN(Cc4ccc(F)cc4F)CC3)nc2cn1` [Example 14, trans-3-((3-(4-(2,4-difluorobenzyl)piperazin-1-yl)-7-methylpyrido[3,4-b]pyrazin-2-yl)amino)cyclobutanol]: the pEC50 is 7.12.

Take `Cc1cc2nc(NC3COC3)c(N3CCN(Cc4ccc(F)cc4F)CC3)nc2cn1` [Example 15, 3-(4-(2,4-difluorobenzyl)piperazin-1-yl)-7-methyl-N-(oxetan-3-yl)pyrido[3,4-b]pyrazin-2-amine]: the pEC50 was 7.66.

Compound `Cc1cc2nc(NC(C)C)c(N3CCC(Oc4ccc(OC(F)F)cc4F)CC3)nc2cn1` [Example 18, 3-(4-(4-(difluoromethoxy)-2-fluorophenoxy)piperidin-1-yl)-N-isopropyl-7-methylpyrido[3,4-b]pyrazin-2-amine] showed a pEC50 of 7.40.

With `Cc1cc2nc(NC3CC3)c(N3CCC(Oc4ccc(OC(F)F)cc4F)CC3)nc2cn1` [Example 19, N-cyclopropyl-3-(4-(4-(difluoromethoxy)-2-fluorophenoxy)piperidin-1-yl)-7-methylpyrido[3,4-b]pyrazin-2-amine], the negative-log EC50 (pEC50) was 7.20.

`Cc1cc2nc(N[C@@H]3CCOC3)c(N3CCC(Oc4ccc(OC(F)F)cc4F)CC3)nc2cn1` [Example 20, (R)-3-(4-(4-(difluoromethoxy)-2-fluorophenoxy)piperidin-1-yl)-7-methyl-N-(tetrahydrofuran-3-yl)pyrido[3,4-b]pyrazin-2-amine] had a negative-log EC50 (pEC50) of 7.09.

On to `Cc1cc2nc(N[C@H]3CCOC3)c(N3CCC(Oc4ccc(OC(F)F)cc4F)CC3)nc2cn1` [Example 21, (S)-3-(4-(4-(difluoromethoxy)-2-fluorophenoxy)piperidin-1-yl)-7-methyl-N-(tetrahydrofuran-3-yl)pyrido[3,4-b]pyrazin-2-amine], for which the negative logarithm of the EC50 (pEC50) was 6.79.

`COc1ccc(CN2CCN(c3nc4cnc(C)cc4nc3NC(C)C)CC2)c(F)c1` [Example 22, 3-(4-(2-fluoro-4-methoxybenzyl)piperazin-1-yl)-N-isopropyl-7-methylpyrido[3,4-b]pyrazin-2-amine] showed a negative logarithm of the EC50 (pEC50) of 7.43.

`COc1ccc(CN2CCN(c3nc4cnc(C)cc4nc3NC3CC3)CC2)c(F)c1` [Example 23, N-cyclopropyl-3-(4-(2-fluoro-4-methoxybenzyl)piperazin-1-yl)-7-methylpyrido[3,4-b]pyrazin-2-amine]: the pEC50 is 6.80.

The compound `COc1ccc(CN2CCN(c3nc4cnc(C)cc4nc3N[C@@H]3CCOC3)CC2)c(F)c1` [Example 24, (R)-3-(4-(2-fluoro-4-methoxybenzyl)piperazin-1-yl)-7-methyl-N-(tetrahydrofuran-3-yl)pyrido[3,4-b]pyrazin-2-amine] gave a negative-log EC50 (pEC50) of 6.51.

`COc1ccc(CN2CCN(c3nc4cnc(C)cc4nc3N[C@H]3CCOC3)CC2)c(F)c1` [Example 25, (S)-3-(4-(2-fluoro-4-methoxybenzyl)piperazin-1-yl)-7-methyl-N-(tetrahydrofuran-3-yl)pyrido[3,4-b]pyrazin-2-amine] had a pEC50 of 6.56. The pEC50 values of the last two compounds are within 0.2 log units of each other.

As for `Cc1cc2nc(NC(C)C)c(N3CCN(Cc4ccc(OC(F)F)cc4F)CC3)nc2cn1` [Example 26, 3-(4-(4-(difluoromethoxy)-2-fluorobenzyl)piperazin-1-yl)-N-isopropyl-7-methylpyrido[3,4-b]pyrazin-2-amine], the negative-log EC50 (pEC50) is 6.33.

Take `Cc1cc2nc(NC3CC3)c(N3CCN(Cc4ccc(OC(F)F)cc4F)CC3)nc2cn1` [Example 27, N-cyclopropyl-3-(4-(4-(difluoromethoxy)-2-fluorobenzyl)piperazin-1-yl)-7-methylpyrido[3,4-b]pyrazin-2-amine]: the pEC50 was 6.35. This pEC50 and that of the compound before are within 0.2 log units of each other.

`Cc1cc2nc(N[C@@H]3CCOC3)c(N3CCN(Cc4ccc(OC(F)F)cc4F)CC3)nc2cn1` [Example 28, (R)-3-(4-(4-(difluoromethoxy)-2-fluorobenzyl)piperazin-1-yl)-7-methyl-N-(tetrahydrofuran-3-yl)pyrido[3,4-b]pyrazin-2-amine] showed a pEC50 of less than 6.00.

Regarding `Cc1cc2nc(N[C@H]3CCOC3)c(N3CCN(Cc4ccc(OC(F)F)cc4F)CC3)nc2cn1` [Example 29, (S)-3-(4-(4-(difluoromethoxy)-2-fluorobenzyl)piperazin-1-yl)-7-methyl-N-(tetrahydrofuran-3-yl)pyrido[3,4-b]pyrazin-2-amine], the pEC50 was less than 6.00.

Take `Cc1cc2nc(N3CCN(Cc4ccc(F)cc4F)CC3)c(NC(C)C)nc2cn1` [Example 30, 2-(4-(2,4-difluorobenzyl)piperazin-1-yl)-N-isopropyl-7-methylpyrido[3,4-b]pyrazin-3-amine 2,2,2-trifluoroacetate]: the negative logarithm of the EC50 (pEC50) was 7.10.

`Cc1cc2nc(N3CCN(Cc4ccc(F)cc4F)CC3)c(NC3CC3)nc2cn1` [Example 31, N-cyclopropyl-2-(4-(2,4-difluorobenzyl)piperazin-1-yl)-7-methylpyrido[3,4-b]pyrazin-3-amine 2,2,2-trifluoroacetate] showed a pEC50 of 6.73. This pEC50 lies 0.37 log units lower than the previous one.

In turn, `Cc1cc2nc(N3CCN(Cc4ccc(F)cc4F)CC3)c(N[C@H]3CCOC3)nc2cn1` [Example 32, (S)-2-(4-(2,4-difluorobenzyl)piperazin-1-yl)-7-methyl-N-(tetrahydrofuran-3-yl)pyrido[3,4-b]pyrazin-3-amine] gave a negative-log EC50 (pEC50) of 6.49.

As for `Cc1cc2nc(N3CCN(Cc4ccc(F)cc4F)CC3)c(N[C@@H]3CCOC3)nc2cn1` [Example 33], the pEC50 was 6.99.

In the case of `Cc1cc2nc(N3CCC(Oc4ccc(F)cc4F)CC3)c(NC3CC3)nc2cn1` [Example 34, N-cyclopropyl-2-(4-(2,4-difluorophenoxy)piperidin-1-yl)-7-methylpyrido[3,4-b]pyrazin-3-amine], the negative logarithm of the EC50 (pEC50) is 7.02.

Regarding `Cc1cc2nc(N3CCC(Oc4ccc(F)cc4F)CC3)c(NC(C)C)nc2cn1` [Example 35, 2-(4-(2,4-difluorophenoxy)piperidin-1-yl)-N-isopropyl-7-methylpyrido[3,4-b]pyrazin-3-amine], the negative logarithm of the EC50 (pEC50) is 7.18.
